Laboratory results: publication PMC7465886, “4-(N-Alkyl- and -Acyl-amino)-1,2,4-triazole-3-thione Analogs as Metallo-β-Lactamase Inhibitors: Impact of 4-Linker on Potency and Spectrum of Inhibition” (Biomolecules, 2020)
Where two headings read alike, the source gives them in different places.

Key:
IMP-1 [1] = molecular target: T1, IMP-1 (Serratia marcescens, UniProt P52699); test: MBL inhibition, reporter substrate method, IMP-1; type: biochemical
T1 construct: made in house; host or cells: E. coli BL21(DE3) derivative, pET-9a
T1 sequence (P52699 19-246 limits assumed): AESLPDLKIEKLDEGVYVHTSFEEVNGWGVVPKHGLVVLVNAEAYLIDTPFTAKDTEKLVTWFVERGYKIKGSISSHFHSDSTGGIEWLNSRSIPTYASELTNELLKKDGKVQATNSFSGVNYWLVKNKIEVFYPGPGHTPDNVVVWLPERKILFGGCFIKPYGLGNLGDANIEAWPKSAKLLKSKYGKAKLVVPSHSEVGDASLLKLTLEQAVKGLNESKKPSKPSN
Experimental: (§1) Compounds were prepared in DMSO at a final concentration of 50 mM prior to dilution in the assay buffer. The reaction rate was measured as the variation of absorbance observed upon substrate hydrolysis in a UV-Vis spectrophotometer or microplate reader at a wavelength of 300 nm (imipenem, meropenem), 260 nm (cefotaxime), or 482 nm (nitrocefin) and in the presence of a purified MBL enzyme (such as VIM-1, VIM-2, VIM-4, NDM-1, and IMP-1, at a final concentration ranging from 1 to 70 nM).
(§2) These enzymes were overproduced in derivatives of E. coli BL21(DE3) carrying a pET-9 a (IMP-1, VIM-1, VIM-2, and VIM-4) or pET-15 b (NDM-1) vector into which the metallo-β-lactamase-encoding open reading frame was cloned. Bacterial strains were grown in the auto-inducing medium, ZYP-5052, supplemented with 50 μg/mL kanamycin for 24 h at 37 °C [38]. IMP-1, VIM-1, VIM-2, and VIM-4 were purified by ion-exchange and gel filtration chromatography using an AKTA Purifier platform (GE Healthcare, Uppsala, Sweden) as previously described. NDM-1 (residues 37-270) was produced as an amino-terminal 6 xHis-tag fusion protein and was purified using affinity chromatography. After growth for 26 h at 25 °C, bacterial cells were harvested by centrifugation (10,000× g, 30 min, 4 °C), resuspended in 10 mM HEPES buffer (pH 7.5) containing 0.15 M NaCl (buffer A) in one-fifth of the original culture volume, and lysed by sonication. Cellular debris was removed by centrifugation (12,000× g, 40 min, 4 °C). The clarified sample was loaded on a HisTrap HP column (bed volume, 5 mL; GE Healthcare), followed by a wash step (25 mL) with buffer A containing 20 mM imidazole. Proteins were eluted using buffer A containing 350 mM imidazole. The resulting protein sample was desalted (HiPrep 26/10 Desalting column, GE Healthcare) using 20 mM triethanolamine (pH 7.2) supplemented with 50 μM ZnSO4 and concentrated using an Amicon Ultra-15 (MW cut-off, 10 kDa; Millipore, Burlington, MA, USA). The concentrated sample was loaded on a Superdex 75 prep grade column (XK16/100 column; bed volume, 140 mL; GE Healthcare) and the proteins eluted with buffer A containing 50 μM ZnSO4. The active fractions were pooled and stored at −20 °C. The purity of the protein preparations was estimated >95% by SDS-PAGE analysis. The authenticity of the enzyme preparations was confirmed by electron spray ionization mass spectrometry, as previously described.
(§3) The inhibition constants (Ki) were determined on the basis of a model of competitive inhibition by analyzing the dependence of the ratio v0/vi (v0, hydrolysis velocity in the absence of inhibitor; vi, hydrolysis velocity in the presence of inhibitor) as a function of [I] as already described. The slope of the plot of v0/vi vs. [I], which corresponds to Km^S/(Km^S + [S])Ki (where Km^S is the Km value of the reporter substrate and [S] its concentration in the reaction mixture) and allowed the calculation of the Ki value. Alternatively, a Dixon plot analysis was carried out by measuring the initial hydrolysis rates in the presence of variable concentrations of inhibitor and substrate. This allowed Ki values to be determined and supported the hypothesis that the various compounds behaved as competitive inhibitors of the various tested enzymes. The assays were performed in triplicate.

VIM-2 [2] = molecular target: T2, VIM-2 (Escherichia coli, UniProt Q5U7L7); test: MBL inhibition, reporter substrate method, VIM-2; type: biochemical; conditions: for Ki: hydrazine and hydrazide series, read-out: Ki Value VIM-2
T2 construct: made in house; host or cells: E. coli BL21(DE3) derivative, pET-9a
Experimental: as §1, §2, §3

NDM-1 [3] = molecular target: T3, NDM-1 (Klebsiella pneumoniae, UniProt C7C422); test: MBL inhibition, reporter substrate method, NDM-1; type: biochemical
T3 sequence (C7C422 37-270 limits assumed): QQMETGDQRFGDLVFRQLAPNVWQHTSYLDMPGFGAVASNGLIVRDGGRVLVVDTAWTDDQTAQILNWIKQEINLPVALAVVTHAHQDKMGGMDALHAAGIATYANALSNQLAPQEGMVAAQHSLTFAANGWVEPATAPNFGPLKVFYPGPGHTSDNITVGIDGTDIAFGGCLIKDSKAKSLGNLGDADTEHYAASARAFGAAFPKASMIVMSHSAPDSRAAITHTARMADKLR
Experimental: as §1, §2, §3

VIM-1 = molecular target: T4, VIM-1 (Pseudomonas aeruginosa, UniProt A0A0F7KYQ8); test: MBL inhibition, reporter substrate method, VIM-1; type: biochemical
T4 construct: made in house; host or cells: E. coli BL21(DE3) derivative, pET-9a
Experimental: as §1, §2, §3

VIM-4 [4] = molecular target: T5, VIM-4 (Pseudomonas aeruginosa, UniProt A0A0F7KYQ8, S205R); test: MBL inhibition, reporter substrate method, VIM-4; type: biochemical
T5 construct: made in house; host or cells: E. coli BL21(DE3) derivative, pET-9a
Experimental: as §1, §2, §3

CphA = molecular target: T6, CphA (Aeromonas hydrophila, UniProt P26918); test: MBL inhibition, CphA (imipenem hydrolysis); type: biochemical
T6 construct: made in house
T6 sequence (P26918 28-254): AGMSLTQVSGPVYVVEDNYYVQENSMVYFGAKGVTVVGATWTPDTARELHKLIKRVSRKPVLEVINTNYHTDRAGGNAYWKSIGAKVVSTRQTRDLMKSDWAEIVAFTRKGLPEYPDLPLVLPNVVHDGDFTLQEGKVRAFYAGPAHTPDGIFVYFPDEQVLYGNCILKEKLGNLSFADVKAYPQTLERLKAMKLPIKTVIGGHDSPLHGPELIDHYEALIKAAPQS
Experimental: Compounds were prepared as 10 mM solutions in DMSO before dilution with appropriate buffers. Buffers were 25 mM Hepes pH 7.5 for CphA or 25 mM Hepes pH 7.5, 50 µM ZnCl2 for L1. The rates in the absence of inhibitor were not modified by addition of 1% DMSO. CphA and L1 enzymes, purified as previously described, were used at concentrations between 0.2 and 0.8 nM, respectively. The enzyme and the inhibitor (100 µM) were pre-incubated for 30 min in a volume of 495 µL at room temperature. The hydrolysis of a solution of 100 µM imipenem for CphA was monitored by following the absorbance variation at 300 nm using a Specord 50 PLUS spectrophotometer (Analytik Jena, Jena, Germany). For L1, the reporter substrate was nitrocefin (100 µM). The enzyme activity was measured by following the absorbance variation at 482 nm. The substrate hydrolysis was done at 30 °C. The activity was tested by measuring the initial rates in three samples without inhibitor that allowed to determine the percentage of residual β-lactamase activity in the presence of inhibitors. […] The Hanes linearization of the Henri–Michaelis equation was used, and Ki was calculated on the basis of the following equation, v = (Vmax.S)/[S + Km(1 + I/Ki)]. […]

L1 = molecular target: T7, L1 (Stenotrophomonas maltophilia, UniProt P52700); test: MBL inhibition, L1 (nitrocefin hydrolysis); type: biochemical; conditions: for inhibition at 100 µM: 100 μM inhibitor, read-out: Inhibition of L1 (dash)
T7 construct: made in house
T7 sequence (P52700 34-290): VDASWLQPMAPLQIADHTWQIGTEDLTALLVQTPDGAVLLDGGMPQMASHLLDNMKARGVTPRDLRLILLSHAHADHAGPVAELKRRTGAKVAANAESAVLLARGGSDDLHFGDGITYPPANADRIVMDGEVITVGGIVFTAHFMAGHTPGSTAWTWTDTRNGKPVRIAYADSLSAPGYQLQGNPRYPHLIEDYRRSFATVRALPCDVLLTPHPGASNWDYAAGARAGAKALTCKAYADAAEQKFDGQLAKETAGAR
Experimental: Compounds were prepared as 10 mM solutions in DMSO before dilution with appropriate buffers. Buffers were 25 mM Hepes pH 7.5 for CphA or 25 mM Hepes pH 7.5, 50 µM ZnCl2 for L1. The rates in the absence of inhibitor were not modified by addition of 1% DMSO. CphA and L1 enzymes, purified as previously described, were used at concentrations between 0.2 and 0.8 nM, respectively. The enzyme and the inhibitor (100 µM) were pre-incubated for 30 min in a volume of 495 µL at room temperature. The hydrolysis of a solution of 100 µM imipenem for CphA was monitored by following the absorbance variation at 300 nm using a Specord 50 PLUS spectrophotometer (Analytik Jena, Jena, Germany). For L1, the reporter substrate was nitrocefin (100 µM). The enzyme activity was measured by following the absorbance variation at 482 nm. The substrate hydrolysis was done at 30 °C. The activity was tested by measuring the initial rates in three samples without inhibitor that allowed to determine the percentage of residual β-lactamase activity in the presence of inhibitors. If the residual activity in the presence of 100 µM inhibitor was <30%, the initial rate conditions were used to study the inhibition in the presence of increasing concentrations of compounds (from 1 to 100 µM) and to determine the competitive inhibition constant Ki. The Hanes linearization of the Henri–Michaelis equation was used, and Ki was calculated on the basis of the following equation, v = (Vmax.S)/[S + Km(1 + I/Ki)]. The assays were performed in triplicates.

[5] = system: E. coli LZ2310(pLBII-VIM-2); test: microbe, parasite or virus in culture; type: cell-based, Escherichia coli; conditions: for Restoration of cefoxitin activity (in words): 30 μg cefoxitin disk, compound 1 at 48 μg, EUCAST clinical breakpoints; for zone of inhibition at 40 µg/disc / zone of inhibition at 120 µg/disc: Escherichia coli, read-out: Inhibition Zone Diameter
Experimental: (§4) The potential activity of selected compounds was assessed by the agar disk-diffusion method, according to the CLSI (Clinical Laboratory Standard Institute) recommendations, using Mueller–Hinton medium. The inhibitor (dissolved in DMSO) was added (maximum volume of 15 μL) to a commercially available disk containing a defined amount of a β-lactam antibiotic (30 μg of cefoxitin (Oxoid, Milan, Italy)). After incubation (18 h at 35 °C), the diameter of the growth inhibition zone was measured and compared to that obtained in the absence of inhibitor. DMSO and EDTA (220 μg) were used as negative and positive controls, respectively. Experiments were performed in triplicate.
These tests were performed on an isogenic laboratory strain obtained after transforming Escherichia coli LZ2310 strain with a derivative of the high copy number plasmid pLB-II carrying the cloned blaVIM-2 gene harboring a cloned gene encoding the functional metallo-β-lactamase. Strain LZ2310 is a triple knockout mutant derived from K12 in which the genes encoding for components of the three major efflux pump systems were inactivated (genotype, ∆norE ∆mdfA N43 acrA1) and was used to generate an hyperpermeable background for MBL production and investigate the potential contribution of such mechanisms to inhibitor efflux.

[6] = system: VIM-4-producing laboratory strain; test: Disk diffusion on VIM-4-producing laboratory strain; type: cell-based
Experimental: as §4

IMP-1 [7] = molecular target: T1, IMP-1; parameters: method as in PMID 32937203; conditions: in parentheses; 100 μM inhibitor; cited from earlier work
VIM-2 [8] = molecular target: T2, VIM-2; conditions: Schiff base analogs; read-out: Ki Value VIM-2, hydrazone-like compound (converted); cited from earlier work
NDM-1 [9] = molecular target: T3, NDM-1; parameters: method as in PMID 32937203; conditions: Schiff base analogs; read-out: Ki Value NDM-1, hydrazone-like compound (converted); cited from earlier work
VIM-4 [10] = molecular target: T5, VIM-4; parameters: method as in PMID 32937203; conditions: Figure 1; read-out: Ki VIM-4, Schiff base; cited from earlier work
[11] = read-out: Inhibition of IMP-1 (dash in Ki column)
[12] = read-out: Inhibition of NDM-1 (dash in Ki column)
[13] = read-out: Inhibition of VIM-1 (dash)

Structure (SMILES)	inhibition at 100 µM (IMP-1 [1]; [11]) [%]	Ki (VIM-2 [2]) [µM]	inhibition at 100 µM (NDM-1 [3]; [12]) [%]	inhibition at 100 µM (VIM-1; [13]) [%]	Ki (VIM-4 [4]) [µM]	Restoration of cefoxitin activity (in words) [5]	zone of inhibition at 120 µg/disc [5] [mm]	also measured
Cc1ccccc1-c1n[nH]c(=S)n1NCc1ccccc1C(=O)O [Compound 2]	< 40	8 ± 0.7	< 40	< 30	10 ± 1	did not show any remarkable activity	–	Ki (CphA): 100 ± 10 µM; Ki (L1): 110 ± 10 µM; zone of inhibition at 40 µg/disc [5]: 11 mm
O=C(O)c1ccccc1CNn1c(-c2ccc3ccccc3c2)n[nH]c1=S [Compound 4]	< 40	4.2 ± 0.9	< 40	–	6.3 ± 0.7	did not show any remarkable activity	10	inhibition at 100 µM (VIM-1; read-out: Percentage of Inhibition at 100 μM Inhibitor, VIM-1): 32%; inhibition at 100 µM (L1): < 30%
O=C(O)c1ccccc1CNn1c(-c2cccc(-c3ccccc3)c2)n[nH]c1=S [Compound 3]	–	0.24 ± 0.02	–	–	0.57 ± 0.03	devoid of activity	11	Ki (IMP-1 [1]; hydrazine series, read-out: Ki Value IMP-1): 76 ± 13 µM; Ki (NDM-1 [3]; hydrazine series, read-out: Ki Value NDM-1): 8.2 ± 0.7 µM; Ki (VIM-1): 3.6 ± 0.2 µM; Restoration of β-lactam activity (in words) [6]: lack of restoration activity
O=C(O)c1ccccc1CNn1c(Cc2ccc3ccccc3c2)n[nH]c1=S [Compound 7]	< 40	1.8 ± 0.2	< 40	–	4.7 ± 0.3	did not show any remarkable activity	11	Ki (VIM-1): 19.5 ± 1.3 µM
O=C(O)c1ccccc1C(=O)Nn1c(-c2cccc(-c3ccccc3)c2)n[nH]c1=S [Compound 19]	–	–	–	< 30	–	–	–	inhibition at 100 µM (IMP-1 [1]; read-out: Percentage of Inhibition at 100 μM Inhibitor, IMP-1): 40%; inhibition at 100 µM (VIM-2 [2]; read-out: Percentage of Inhibition at 100 μM Inhibitor, VIM-2): 36%; inhibition at 100 µM (NDM-1 [3]; read-out: Percentage of Inhibition at 100 μM Inhibitor, NDM-1): 42%; inhibition at 100 µM (VIM-4 [4]; read-out: Percentage of Inhibition at 100 μM Inhibitor, VIM-4): 41%
O=C(O)c1ccccc1/C=N/n1c(-c2ccccc2)n[nH]c1=S [JMV4390]	–	–	–	–	–	–	–	Inhibition of IMP-1 (dash in Ki column), corresponding hydrazone-like compound (IMP-1 [7]): -^2 (-) (<40% of inhibition in the presence of 100 μM inhibitor); Ki (VIM-2 [8]): 2.7 µM; Ki (NDM-1 [9]): 38 µM; Ki (VIM-4 [10]): 1.4 µM
O=C(O)c1ccccc1CNn1c(Cc2ccccc2)n[nH]c1=S [Compound 6]	< 40	8.5 ± 2.3	< 40	< 30	–	did not show any remarkable activity	–	inhibition at 100 µM (VIM-4 [4]; read-out: Inhibition of VIM-4 (dash)): < 30%; inhibition at 100 µM (L1): < 30%; zone of inhibition at 40 µg/disc [5]: 10 mm
